Data taken from publication PMC6269066, “A New Synthetic Route to Original Sulfonamide Derivatives in 2-Trichloromethylquinazoline Series: A Structure-Activity Relationship Study of Antiplasmodial Activity” (Molecules, 2012).
Read-outs that look alike come from different tables or passages of the source.

Assays:
[1] = system: multi-resistant K1 Plasmodium falciparum strain; experiment: in vitro antiplasmodial activity, K1 strain (Table 1); format: cell-based
[2] = cytotoxicity toward the human HepG2 cell line (CC50); conditions: HepG2 cells
[3] = system: human HepG2 cell line
[4] = system: multi-resistant W2 or K1 Plasmodium falciparum strains; experiment: in vitro antiplasmodial activity, 2-trichloromethylquinazoline series (Table 2); format: cell-based; conditions: for IC50: Plasmodium falciparum, read-out: IC50 P. falc.
[5] = system: human HepG2 cell line; design: method as in PMID 17981462, PMID 19482476, PMID 19926173, PMID 21741131, PMID 21852132; conditions: previously synthesized series (Table 2, entries 1-4); cited from earlier work
[6] = system: multi-resistant W2 or K1 Plasmodium falciparum strains; design: method as in PMID 17981462, PMID 19482476, PMID 19926173, PMID 21741131, PMID 21852132; conditions: previously synthesized series (Table 2, entries 1-4); W2 or K1 strain; read-out: IC50 P. falc.; cited from earlier work
[7] = in vitro; conditions: human
[8] = Plasmodium falciparum, P. falciparum K1 strain, highest tested concentration 10 µM, read-out: IC50 P fK1
[9] = P. falciparum K1 strain, highest tested concentration 10 µM, read-out: IC50 P fK1

SMILES | IC50 [1, 8] [µM] | melting point [°C] | CC50 [2] [µM] | also measured
O=S(=O)(Nc1nc(C(Cl)(Cl)Cl)nc2ccccc12)c1cccc2ccccc12 [8r, N-(2-trichloromethylquinazolin-4-yl)naphtalene-1-sulfonamide] | – | – | – | IC50 [1, 9]: > 10 µM; CC50 [3]: 47.8 µM
Fc1ccc(-c2nc(C(Cl)(Cl)Cl)nc3ccccc23)cc1 [C00001] | – | – | – | SI (selectivity index) ([4]; SI = CC50/IC50, previously synthesized series (Table 2, entries 1-4)): >50; CC50 [5]: > 125 µM; IC50 [6]: 2.5 µM
CS(=O)(=O)Nc1nc(C(Cl)(Cl)Cl)nc2ccccc12 [8t, N-(2-trichloromethylquinazolin-4-yl)methanesulfonamide] | > 10 | 186 | 241 | –
O=S(=O)(Nc1nc(C(Cl)(Cl)Cl)nc2ccccc12)c1ccc2ccccc2c1 [8q, N-(2-trichloromethylquinazolin-4-yl)naphtalene-2-sulfonamide] | – | – | – | IC50 [1, 9]: > 10 µM; CC50 [3]: 48.8 µM
O=S(=O)(Nc1nc(C(Cl)(Cl)Cl)nc2ccccc12)c1cccs1 [8s, N-(2-trichloromethylquinazolin-4-yl)thiophene-2-sulfonamide] | > 10 | 191 | 121 | –
CCN(CC)CCCC(C)Nc1ccnc2cc(Cl)ccc12 (stereo not shown) [Chloroquine, reference compound] | – | – | – | IC50 ([1]; Plasmodium falciparum, K1, read-out: IC50 P fK1): 0.6 µM; IC50 [4]: 0.6 µM
O=S(=O)(Nc1nc(C(Cl)(Cl)Cl)nc2ccccc12)c1ccc(C(F)(F)F)cc1 [8m, N-(2-trichloromethylquinazolin-4-yl)-4-(trifluoromethyl)benzenesulfonamide] | > 10 | 166 | 49 | –
O=S(=O)(Nc1nc(C(Cl)(Cl)Cl)nc2ccccc12)c1cccc(C(F)(F)F)c1 [8n, N-(2-trichloromethylquinazolin-4-yl)-3-(trifluoromethyl)benzenesulfonamide] | > 10 | 255 | 75.1 | –
O=S(=O)(Nc1nc(C(Cl)(Cl)Cl)nc2ccccc12)c1ccc(Br)cc1 [8f, 4-Bromo-N-(2-trichloromethylquinazolin-4-yl)benzenesulfonamide] | > 10 | > 260 | 57.4 | –
N#Cc1ccc(S(=O)(=O)Nc2nc(C(Cl)(Cl)Cl)nc3ccccc23)cc1 [8d, 4-Cyano-N-(2-trichloromethylquinazolin-4-yl)benzenesulfonamide] | > 10 | 204 | 73.8 | –
O=[N+]([O-])c1ccc(S(=O)(=O)Nc2nc(C(Cl)(Cl)Cl)nc3ccccc23)cc1 [8j, 4-Nitro-N-(2-trichloromethylquinazolin-4-yl)benzenesulfonamide] | > 10 | 250 | 88.3 | –
COc1cccc2c1C(=O)c1c(O)c3c(c(O)c1C2=O)C[C@@](O)(C(=O)CO)C[C@@H]3O[C@H]1C[C@H](N)[C@H](O)[C@H](C)O1 [Doxorubicine] | – | – | – | CC50 [7]: 0.2 µM
Cc1ccc(S(=O)(=O)Nc2nc(C(Cl)(Cl)Cl)nc3ccccc23)cc1 [8b, 4-Methyl-N-(2-trichloromethylquinazolin-4-yl)benzenesulfonamide] | > 10 | > 260 | 68.7 | –
O=S(=O)(Nc1nc(C(Cl)(Cl)Cl)nc2ccccc12)c1ccccc1 [8a, N-(2-Trichloromethylquinazolin-4-yl)benzenesulfonamide] | > 10 | 200 | 82 | –
O=S(=O)(Nc1nc(C(Cl)(Cl)Cl)nc2ccccc12)c1ccc(F)cc1 [8g, 4-Fluoro-N-(2-trichloromethylquinazolin-4-yl)benzenesulfonamide] | > 10 | > 260 | 69.5 | –
COc1ccc(S(=O)(=O)Nc2nc(C(Cl)(Cl)Cl)nc3ccccc23)cc1 [8c, 4-Methoxy-N-(2-trichloromethylquinazolin-4-yl)benzenesulfonamide] | > 10 | 196 | 102 | –

Now from value to compound, other results behind:

IC50 [1, 8] [µM] | melting point [°C] | SMILES | CC50 [2] [µM] | also measured
> 10 | 188 | O=S(=O)(Nc1nc(C(Cl)(Cl)Cl)nc2ccccc12)c1ccccc1F [8i, 2-Fluoro-N-(2-trichloromethylquinazolin-4-yl)benzenesulfonamide] | 136 | –
> 10 | 205 | O=S(=O)(Nc1nc(C(Cl)(Cl)Cl)nc2ccccc12)c1ccccc1C(F)(F)F [8o, N-(2-trichloromethylquinazolin-4-yl)-2-(trifluoromethyl)benzenesulfonamide] | 73.8 | –
> 10 | 204 | O=[N+]([O-])c1cccc(S(=O)(=O)Nc2nc(C(Cl)(Cl)Cl)nc3ccccc23)c1 [8k, 3-Nitro-N-(2-trichloromethylquinazolin-4-yl)benzenesulfonamide] | 120 | –
> 10 | > 260 | O=S(=O)(Nc1nc(C(Cl)(Cl)Cl)nc2ccccc12)c1ccc(Cl)cc1 [8e, 4-Chloro-N-(2-trichloromethylquinazolin-4-yl)benzenesulfonamide] | 71.1 | –
> 10 | 194 | O=S(=O)(Nc1nc(C(Cl)(Cl)Cl)nc2ccccc12)c1cccc(F)c1 [8h, 3-Fluoro-N-(2-trichloromethylquinazolin-4-yl)benzenesulfonamide] | 106 | –
> 10 | > 260 | O=[N+]([O-])c1ccccc1S(=O)(=O)Nc1nc(C(Cl)(Cl)Cl)nc2ccccc12 [8l, 2-Nitro-N-(2-trichloromethylquinazolin-4-yl)benzenesulfonamide] | 126 | –
> 10 | 210 | O=S(=O)(Nc1nc(C(Cl)(Cl)Cl)nc2ccccc12)c1ccc(-c2ccccc2)cc1 [8p, N-(2-trichloromethylquinazolin-4-yl)biphenyl-4-sulfonamide] | 38.2 | –
6 | – | C[C@H]1c2cccc(O)c2C(=O)C2=C(O)[C@]3(O)C(=O)C(C(N)=O)=C(O)[C@@H](N(C)C)[C@@H]3[C@@H](O)[C@@H]21 [Doxycycline, reference compound] | 20 | IC50 ([4]; Table 2, sulfonamide series and reference drugs): 6 µM
